Here are results for 13 compounds from paper PMC3157558, “Huprines as a new family of dual acting trypanocidal–antiplasmodial agents” (Bioorganic & Medicinal Chemistry, 2011).

One data set concerns acetylcholinesterase. The arrangement: method as in PMID 10464010, PMID 11101357. The note with it: cited from earlier work.
The subject of data set [1] is bloodstream form T. brucei. The experiment in a line: microbe, parasite or virus in culture. It is filed as cell-based, Trypanosoma brucei. The note with it: for SI (selectivity index, ratio of cytotoxic to trypanocidal IC50 values): IC50 against L6 cells/IC50 against T. brucei.
Description: (§1) Trypanocidal activity was assessed by growing parasites for 48 h in the presence of various drug concentrations and determining the levels which inhibited growth by 50% (IC50) and 90% (IC90). In the case of untreated cultures, cell densities increased from 0.25 × 10^5 to 1 × 10^6 over this period. Cell densities at each drug concentration were determined using a hemocytometer and drug sensitivity was expressed as a percentage of growth of control cells.
A short description of a further data set: in vitro. It is filed as cell-based, Trypanosoma brucei. The note with it: 427, rat.
Data set [2] relates to rat skeletal myoblast L6 cells. The experiment in a line: Cytotoxic activity against rat skeletal myoblast L6 cells (Alamar Blue). It is filed as cell-based. Conditions: 6 days incubation, mean of triplicate ± SEM. The method, then:
Cytotoxicity against mammalian cells was assessed using microtitre plates following a described procedure.[41] Briefly, L6 cells (a rat skeletal muscle line) were seeded at 1 × 10^4 ml^−1 in 200 μL of growth medium containing different compound concentrations. The plates were incubated for 6 days at 37 °C and 20 μL Alamar Blue (Biosource UK Ltd) was then added to each well. After a further 8 h incubation, the fluorescence was determined using a Gemini fluorescent plate reader (Molecular Devices).

The test system of data set [3] is memory and learning activities. Conditions: cited from earlier work.
Data set [4] relates to Alzheimer's disease related brain neuropathology. The arrangement: method as in PMID 20689242. Conditions: transgenic mouse model; cited from earlier work.
The mark [5] stands for this setting: Trypanosoma brucei, bloodstream form T. brucei, pH 7.4, 48 h growth, concentration inhibiting growth by 90%, mean of triplicate ± SEM, read-out: T. brucei IC90.
Where [6] appears, read: Trypanosoma brucei, bloodstream form T. brucei, pH 7.4, 48 h growth, mean of triplicate experiments ± SEM, read-out: T. brucei IC50.
Setting [7] is: Trypanosoma brucei, 48 h, pH 7.4, read-out: T. brucei IC50.
Setting [8] is: Trypanosoma brucei, 48 h, pH 7.4, read-out: T. brucei IC90.
The mark [9] stands for this setting: bloodstream form T. brucei, pH 7.4, 48 h growth, concentration inhibiting growth by 90%, mean of triplicate ± SEM, read-out: T. brucei IC90.
Setting [10] is: bloodstream form T. brucei, pH 7.4, 48 h growth, mean of triplicate experiments ± SEM, read-out: T. brucei IC50.

Counter-ions that a name gives are not always drawn. Like-named read-outs stand apart in the source and are kept apart here.

Description for in vitro: as §1

Broadly, the IC90 is the point of the concentration-response curve where the effect stands at 90%. For orientation: IC50 means the concentration that gives 50% inhibition. Turning to `CC1=CC2Cc3nc4cc(Cl)ccc4c(N)c3C(C1)C2` (stereo not drawn) [huprine 3], the “acetylcholinesterase inhibitory potency (rank in words)” value with acetylcholinesterase was “most potent acetylcholinesterase inhibitors”. Moreover, the concentration for an effect of 90% (IC90) in data set [1] (setting [5]) worked out at 2.94 ± 0.2 µM. Moreover, the IC50 in data set [1] (setting [6]) was 0.61 ± 0.03 µM; in data set [2] (144 h), 7.8 ± 0.47 µM. Besides, the selectivity ratio in “in vitro” turned out to be 12.8.
In the case of `CCC1=CC2Cc3nc4cc(Cl)ccc4c(N)c3[C@@H](C1)C2` [huprine 4], the “acetylcholinesterase inhibitory potency (rank in words)” value in the data set on acetylcholinesterase was “most potent acetylcholinesterase inhibitors”. Also, the “adverse effects in behavioural studies” value in data set [3] (behavioural studies in mice) is recorded as “did not induce adverse effects”. Besides, the “effect on memory and learning activities” value in data set [3] (middle aged mice) was “ameliorate memory and learning activities”. The “effect on Alzheimer's disease related brain neuropathology” value in data set [4] is “ameliorate”. The IC90 in data set [1] (setting [5]) was determined as 1.76 ± 0.2 µM. Moreover, the figures for the IC50 in data set [1] (setting [6]) and in data set [2] (144 h) were 0.84 ± 0.06 µM and 12.5 ± 0.4 µM, respectively.
On to `CC(C)C1=CC2Cc3nc4ccccc4c(N)c3C(C1)C2` (stereo not drawn) [huprine 5], for which the IC50 in data set [1] (setting [7]) stood at 2.06 ± 0.44 µM. In data set [1] (setting [8]), the IC90 came to 4.76 ± 0.82 µM.
In the case of `C=CCC1=CC2Cc3nc4ccccc4c(N)c3C(C1)C2` (stereo not drawn) [huprine 6], the IC90 in data set [1] (setting [5]) was 8.52 ± 0.19 µM. Also, in data set [1] (setting [6]), the IC50 came out at 4.08 ± 0.45 µM.
On to `CC(C)C1=CC2Cc3nc4cc(Cl)ccc4c(N)c3C(C1)C2` (stereo not drawn) [huprine 8, 12-Amino-3-chloro-6,7,10,11-tetrahydro-9-isopropyl-7,11-methanocycloocta[b]quinoline hydrochloride], for which the IC90 in data set [1] (setting [9]) is 4.34 ± 0.03 µM. In data set [1] (setting [10]), the IC50 turned out to be 2.45 ± 0.37 µM.
Regarding `C=CCC1=CC2Cc3nc4cc(Cl)ccc4c(N)c3C(C1)C2` (stereo not drawn) [huprine 9, 9-Allyl-12-amino-3-chloro-6,7,10,11-tetrahydro-7,11-methanocycloocta[b]quinoline hydrochloride], the IC90 in data set [1] (setting [5]) worked out at 2.87 ± 0.18 µM. The IC50 turned out to be 0.76 ± 0.07 µM in data set [1] (setting [6]) and 12.4 ± 0.4 µM in data set [2] (144 h). For the same compound, the selectivity ratio in the data set “in vitro” (IC50 against L6 cells/IC50 against T. brucei, read-out: SI (selectivity index, ratio of cytotoxic to trypanocidal IC50 values)) came to 16.3.
As for `CC(C)C1=CC2Cc3nc4cccc(F)c4c(N)c3C(C1)C2` (stereo not drawn) [huprine 10, 12-Amino-1-fluoro-6,7,10,11-tetrahydro-9-isopropyl-7,11-methanocycloocta[b]quinoline hydrochloride], the IC90 in data set [1] (setting [9]) came out at 7.75 ± 0.23 µM. The IC50 in data set [1] (setting [10]) came to 2.6 ± 0.55 µM.
For the compound `C=CCC1=CC2Cc3nc4cccc(F)c4c(N)c3C(C1)C2` (stereo not drawn) [huprine 11, 9-Allyl-12-amino-1-fluoro-6,7,10,11-tetrahydro-7,11-methanocycloocta[b]quinoline hydrochloride], the IC50 in data set [1] (setting [7]) came out at 3.62 ± 0.54 µM. Besides, the IC90 in data set [1] (setting [8]) was 8.73 ± 0.69 µM.
In the case of `CCC1=CC2Cc3nc4ccccc4c(N)c3C(C1)C2` (stereo not drawn) [huprine 12], the “SI (selectivity index, ratio of cytotoxic to trypanocidal IC50 values)” value in data set [1] turned out to be 12.1. Besides, the IC90 in data set [1] (setting [9]) came to 4.53 ± 0.16 µM. The half-maximal inhibitory concentration (IC50) in data set [1] (setting [10]) worked out at 1.29 ± 0.16 µM; in data set [2], 15.6 ± 1.6 µM.
As for `CC(C)(C)C1=CC2Cc3nc4ccccc4c(N)c3C(C1)C2` (stereo not drawn) [huprine 14], in the data set on acetylcholinesterase, the “acetylcholinesterase inhibitory potency (rank in words)” value is listed as “least potent acetylcholinesterase inhibitors”. Moreover, the “SI (selectivity index, ratio of cytotoxic to trypanocidal IC50 values)” value in data set [1] was 13.2. The IC90 in data set [1] (setting [9]) was 3.05 ± 0.03 µM. The IC50 in data set [1] (setting [10]) stood at 0.88 ± 0.26 µM; in data set [2], 11.6 ± 0.5 µM.
Take `CC1=CC2Cc3nc4cc(C)ccc4c(N)c3C(C1)C2` (stereo not drawn) [huprine 17]: the “SI (selectivity index, ratio of cytotoxic to trypanocidal IC50 values)” value in data set [1] came out at 19.2. Besides, the IC90 in data set [1] (setting [9]) was 3.31 ± 0.59 µM. Moreover, the IC50 was determined as 1.04 ± 0.05 µM in data set [1] (setting [10]) and 20 ± 0.5 µM in data set [2].
As for `CCC1=CC2Cc3nc4cccc(Cl)c4c(N)c3C(C1)C2` (stereo not drawn) [huprine 18], in data set [1], the “SI (selectivity index, ratio of cytotoxic to trypanocidal IC50 values)” value worked out at 15.7. In addition, the IC90 in data set [1] (setting [9]) was found to be 3.11 ± 0.29 µM. Besides, the IC50 came out at 1.36 ± 0.19 µM in data set [1] (setting [10]) and 21.3 ± 1.3 µM in data set [2].
On to `CCC1=CC2Cc3nc4cccc(C)c4c(N)c3C(C1)C2` (stereo not drawn) [huprine 20], for which, in data set [1] (setting [9]), the IC90 was 8.86 ± 0.15 µM. In addition, the IC50 in data set [1] (setting [10]) worked out at 5.28 ± 1.11 µM.
